# Reference: PMC3923730 (Journal of Translational Medicine, 2014)
# “And” between values parts separate entries of the source, which are not always exact repeats. Identical values can stand only once.
# Columns and labels:
# [1] = Pharmacokinetics in rats (plasma); format: in vivo; conditions: rat plasma
# Description: (§1) TRO40303 was administered by intravenous (i.v.) bolus to healthy rats at doses of 0.3, 1, 3 and 10 mg/kg in IL30 under isoflurane gas anaesthesia. A maximum of 0.25 mL of blood was collected into lithium heparin tubes at 5, 15 and 30 min, 1 h, 2 h, 4 h, 8 h and 24 h after drug administration (3 rats per time point). The blood samples were cooled on ice and plasma samples were prepared within 60 min of sampling by centrifugation at 1500 g at 4 °C for 10 min and stored at –20°C until analysis. For heart level measurements, TRO40303 was administrated i.v. to rats undergoing the myocardial infarction procedure at the dose of 1 mg/kg in IL30 either 10 min before CAO or 10 min before CAR. Five min after CAR, rats were anesthetised and sacrificed, hearts were isolated and washed with saline. Tissue from AAR was separated from the remainder of the left ventricle; samples were frozen and stored at –20°C until analysis. After TRO40303 plasma concentration analysis, TRO40303 plasma AUC(0-∞) (the area under the curve extrapolated from time zero to time infinity), was calculated using Kinetica™, version 4.4.1 (Thermo Electron Corporation, Philadelphia, PA 19103, USA). The results were analyzed in comparison with previous pharmacokinetic data obtained with TRO40303 formulated in HPBCD at 2.5 mg/kg.
# Thawed preclinical samples were extracted with acetonitrile, centrifuged, purified on SPEC C2 cartridge (Varian) for the heart samples and analysed along with calibration standards. Analysis was carried out on an Alliance 2695 (Waters) system interfaced to an API Quattro Micro (Waters) MS detector. Calculations were carried out with Waters QuanLynx software.
# [2] = TRO40303 heart level measurement in rats; format: in vivo; conditions: rat, 1 mg/kg i.v. in IL30 10 min before CAO or 10 min before CAR, 5 min post reperfusion, AAR and remainder of left ventricle
# Description: as §1, with “Tissue from AAR was separated from the remainder of the left ventricle; samples were frozen and stored at –20°C until analysis.” left out
# Thawed preclinical samples were extracted with acetonitrile, centrifuged, purified on SPEC C2 cartridge (Varian) for the heart samples and analysed along with calibration standards. […]
# [3] = tested on: isolated rat heart; assay: Free radical (ESR) and lipid peroxidation (MDA-TBA) measurements in isolated rat heart; conditions: 1 μM
# Description: To evaluate the effect of 1 μM TRO40303 on ischemia-reperfusion-induced ascorbate release and tissue depletion, effluents from control and treated hearts undergoing the perfusion protocol described above (n = 6/group) were collected for 15 s, 1 min following onset of reflow, and hearts were frozen in liquid nitrogen at the end of the reperfusion period. Ascorbate content in effluents and tissue homogenates was then assessed by quantifying the ascorbyl free radical (AFR)-dimethyl sulfoxide (DMSO) electron spin resonance (ESR) doublet as previously described, DMSO being used to stabilize the ascorbate free radical.
# To investigate whether TRO40303 could interfere with ischemia-reperfusion-triggered ROS production, hearts (n = 6) undergoing the perfusion protocol described above received the spin trap nitrone DMPO (25 mM) during the first 5 min of reperfusion. A 15-s collection of the effluents was performed pre-ischemically on three additional hearts from both groups, and 3 min after onset of reflow for the 6 ischemic/reperfused hearts. Samples were immediately stored in liquid nitrogen. The free radical content of DMPO-supplemented from TRO40303-treated and control effluents was determined by ESR in glass capillaries. The ESR signal was acquired 1.5 min after thawing of the sample using the same parameters as for ascorbate except: modulation amplitude 0.0313 mT, receiver gain 5 × 10^4 and sweep rate for each scan 0.167 mT/s.
# Lipid peroxidation in heart tissue at the end of reperfusion was evaluated using the malondialdehyde-thiobarbituric acid assay (MDA-TBA) (n = 8/group) as previously described.
structure (smiles),measurement,setting,value
"CC(C)CCC[C@@H](C)[C@H]1CC[C@H]2[C@@H]3CC/C(=N\O)[C@](C)(CCCO)[C@H]3CC[C@]12C [TRO40303, 3,5-seco-4-nor-cholestan-5-one oxime-3-ol]",AUC(0-∞),"[1]; 3 mg/kg i.v. in IL30, satellite animals",14.0 µg·h/mL
same,C5min,"[1]; 3 mg/kg i.v. in IL30, satellite animals, 3 mg/kg",57.9 μM and 23.5 μg/mL
same,AUC(0-∞),"[1]; 10 mg/kg i.v. in IL30, satellite animals",44.8 µg·h/mL
same,C5min,"[1]; 10 mg/kg i.v. in IL30, satellite animals, 10 mg/kg",130 μM and 52.8 μg/mL
same,concentration of TRO40303 in heart tissue,[2],~ 1 μg/g
same,decrease of DMPO-OH ESR signal intensity in coronary effluents,"[3]; 25 mM DMPO at reperfusion, 3 min after onset of reflow, p < 0.05, n = 6",69%
same,AFR-DMSO release in the coronary effluents versus untreated hearts,"[3]; early reperfusion (1st min), p < 0.001, n = 6",–57%
same,tissue AFR-DMSO versus untreated hearts,"[3]; end of reflow, p < 0.05, n = 6",+24%
same,MDA-TBA formation compared to vehicle-perfused hearts,"[3]; heart tissue at end of reperfusion, p < 0.01, n = 8",–65%
